Columns and labels:
Experiment in all cases: selective drug sensitivity score (sDSS, relative to normal bone marrow) (sDSS (score)); higher = more potent and effective on the cell line relative to normal bone marrow cells
Details in all cases: 72 h
ALL-SIL = tested on: ALL-SIL
COG-LL-332h = tested on: COG-LL-332h
COG-LL-355h = tested on: COG-LL-355h
COG-LL-402h = tested on: COG-LL-402h
DND-41 = tested on: DND-41
HAL-01 = tested on: HAL-01
KASUMI-9 = tested on: KASUMI-9
KOPN-8 = tested on: KOPN-8
MHH-CALL-2 = tested on: MHH-CALL-2
MHH-CALL-3 = tested on: MHH-CALL-3
MN-60 = tested on: MN-60
MOLT-16 = tested on: MOLT-16
MOLT-4 = tested on: MOLT-4
NALM-16 = tested on: NALM-16
P12-ICHIKAWA = tested on: P12-ICHIKAWA
RCH-ACV = tested on: RCH-ACV
REH = tested on: REH
RPMI-8402 = tested on: RPMI-8402
TANOUE = tested on: TANOUE
TMD5 = tested on: TMD5
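Note: ALL cell lines in 384-well plates, five doses spanning 10,000-fold, each plate scaled between vehicle and 100 µmol/L benzalkonium chloride controls, sDSS an adapted area-under-curve metric.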

Row | SMILES | selective drug sensitivity score (ALL-SIL) | selective drug sensitivity score (COG-LL-332h) | selective drug sensitivity score (COG-LL-355h) | selective drug sensitivity score (COG-LL-402h) | selective drug sensitivity score (DND-41) | selective drug sensitivity score (HAL-01) | selective drug sensitivity score (KASUMI-9) | selective drug sensitivity score (KOPN-8) | selective drug sensitivity score (MHH-CALL-2) | selective drug sensitivity score (MHH-CALL-3) | selective drug sensitivity score (MN-60) | selective drug sensitivity score (MOLT-16) | selective drug sensitivity score (MOLT-4) | selective drug sensitivity score (NALM-16) | selective drug sensitivity score (P12-ICHIKAWA) | selective drug sensitivity score (RCH-ACV) | selective drug sensitivity score (REH) | selective drug sensitivity score (RPMI-8402) | selective drug sensitivity score (TANOUE) | selective drug sensitivity score (TMD5)
1 | C=CC(=O)N1CCC[C@@H](n2nc(-c3ccc(Oc4ccccc4)cc3)c3c(N)ncnc32)C1 [Ibrutinib] (top concentration 1000 nM) | 0 | 2.4 | 0 | 9.1 | 0 | 1.9 | 1.3 | 2.7 | 0.1 | 0 | 0 | 2 | 1.4 | 0 | 0 | 15 | 0 | 1.1 | 0 | 0.1
2 | CC(C)NC(=O)COc1cccc(-c2nc(Nc3ccc4[nH]ncc4c3)c3ccccc3n2)c1 [KD025] (top concentration 5000 nM) | 1.24 | -0.56 | -0.86 | -5.36 | -5.36 | -3.26 | 4.04 | 0.74 | 3.94 | -5.36 | -5.36 | 0.64 | -2.76 | -1.16 | -4.06 | -2.16 | -5.36 | -2.36 | -5.36 | -3.16
3 | CCc1cnn2c(NCc3ccc[n+]([O-])c3)cc(N3CCCC[C@H]3CCO)nc12 [Dinaciclib] (top concentration 1000 nM) | -1.74 | -1.54 | -4.14 | 2.86 | -0.14 | -5.74 | 1.26 | -6.34 | -3.74 | 1.76 | -7.74 | -2.24 | -5.84 | -7.04 | -6.44 | -0.64 | -5.84 | -2.64 | -14.3 | -10.8
4 | Cc1cc(C(C)Nc2ccccc2)c2nc(N3CCOCC3)cc(=O)n2c1 (stereo not given) [TGX-221] (top concentration 10000 nM) | -1.64 | -1.54 | 2.96 | 1.76 | -1.64 | 7.86 | 1.16 | -1.64 | 5.16 | -1.64 | -1.64 | -1.34 | 0.66 | -1.64 | -1.64 | 13.5 | -0.84 | -0.04 | -0.94 | -1.64
5 | N[C@@H]1CCCN(c2c(/C=C3\SC(=O)NC3=O)cccc2-c2ccccc2)C1 [AZD1208] (top concentration 10000 nM) | 0.7 | -2.9 | 12.4 | -4.4 | -1.3 | 6.3 | -1.7 | 7.4 | 3.7 | -4.4 | -1.8 | -4.4 | -4.4 | -3.2 | -4 | 0.6 | 5.5 | -3.1 | -4.1 | 3.1
6 | Cn1c(Nc2ccc(C(F)(F)F)cc2)nc2cc(Oc3ccnc(-c4ncc(C(F)(F)F)[nH]4)c3)ccc21 [NVP-RAF265] (top concentration 1000 nM) | 8.28 | 3.28 | 10.3 | 5.98 | 3.58 | 5.68 | 4.48 | 4.18 | 12 | 7.68 | -0.22 | 8.68 | 3.48 | 6.18 | 2.58 | 6.68 | 2.18 | 0.98 | 0.68 | 6.28
7 | Cc1nc(Nc2ncc(C(=O)Nc3c(C)cccc3Cl)s2)cc(N2CCN(CCO)CC2)n1 [Dasatinib] (top concentration 1000 nM) | 41.4 | 17 | -2.8 | 16.8 | 1.4 | -2.8 | 3.1 | 0.4 | -2.8 | -2.8 | -1.7 | -2.8 | 1.9 | -2.8 | -1.7 | 21.5 | -2.8 | -0.8 | -2.8 | 10.4
8 | N#Cc1ccc(COC[C@H]2O[C@@H](n3c(NCc4ccc(Cl)c(Cl)c4)nc4c(N)ncnc43)[C@H](O)[C@@H]2O)cc1 (top concentration 10000 nM) | 11.7 | 10.4 | 2.22 | 2.02 | 8.82 | 0.42 | -0.58 | 2.02 | 0.52 | 0.32 | 2.12 | 9.72 | 5.32 | -0.88 | 7.22 | 8.62 | 9.12 | 7.92 | 1.42 | -1.38
9 | Cc1ccc(C(=O)N(CCCN)[C@@H](c2oc3cc(Cl)ccc3c(=O)c2Cc2ccccc2)C(C)C)cc1 (top concentration 100 nM) | 1.06 | 6.96 | -2.64 | 3.06 | -0.64 | 3.66 | 4.16 | 3.46 | 9.46 | -2.44 | -1.84 | 7.46 | 1.16 | 5.76 | 1.76 | 1.96 | 4.26 | 2.86 | -3.64 | 11.9
10 | Nc1cccc2c1CN(C1CCC(=O)NC1=O)C2=O (stereo not given) [Lenalidomide] (top concentration 100000 nM) | -0.88 | 0.22 | 2.82 | -2.28 | 2.12 | 4.22 | 7.42 | 1.02 | 1.92 | -2.28 | -2.28 | -0.88 | -2.28 | -0.38 | -2.28 | 4.42 | -2.28 | -2.08 | -2.28 | 5.02
11 | CC(C)(C)c1cnc(CSc2cnc(NC(=O)C3CCNCC3)s2)o1 [SNS-032] (top concentration 10000 nM) | -3.84 | -3.54 | 0.16 | 3.06 | -2.44 | -8.04 | -0.54 | -2.54 | 2.96 | -4.44 | -8.64 | -0.64 | -4.84 | -6.04 | -5.04 | 1.26 | -5.44 | -4.74 | -14 | -4.54
12 | CC1=NN(c2ccc(C(=O)O)cc2)C(=O)C1=Cc1ccc(-c2cc(C)c(C)cc2[N+](=O)[O-])o1 [C646] (top concentration 25000 nM) | 6.14 | 1.74 | 4.44 | -0.16 | 2.94 | -2.06 | 4.74 | 2.44 | -2.06 | 4.64 | -2.06 | 4.84 | 0.24 | -2.06 | -2.06 | 1.94 | 4.44 | -2.06 | -2.06 | -2.06
13 | Cc1c(C(=O)Nc2ccc(N3C[C@@H](C)O[C@@H](C)C3)nc2)cccc1-c1ccc(OC(F)(F)F)cc1 [Sonidegib] (top concentration 10000 nM) | 1.08 | -1.42 | -3.92 | -3.92 | 5.08 | -3.92 | 1.48 | 10.5 | 7.48 | -3.92 | -1.42 | 3.18 | 1.08 | -3.92 | 0.38 | 5.78 | 0.98 | 1.88 | -2.42 | -3.92
14 | CNc1nc(-c2ccc3c(N)n[nH]c3c2)cc(N2C[C@@H](C(=O)NC3CCCCC3)CC[C@H]2C)n1 (top concentration 10000 nM) | 1.36 | -0.14 | 6.66 | 6.36 | 1.96 | -0.14 | 6.36 | 7.26 | 6.16 | -0.14 | 2.96 | -0.14 | -0.14 | 3.86 | -0.14 | 18.6 | 3.86 | -0.14 | 0.16 | 2.16
15 | C/C=C1\NC(=O)[C@H]2CSSCC/C=C/[C@H](CC(=O)N[C@H](C(C)C)C(=O)N2)OC(=O)[C@H](C(C)C)NC1=O [Romidepsin] (top concentration 1000 nM) | 3.26 | 1.36 | -0.54 | 8.76 | 4.76 | -17.5 | 3.16 | 3.16 | 6.76 | 9.76 | -4.94 | 2.76 | 1.76 | 0.76 | 1.66 | 2.36 | 1.26 | 1.66 | -11 | 3.46
16 | Cc1cc2c(C(C)C)c(O)c(O)c(C=O)c2c(O)c1-c1c(C)cc2c(C(C)C)c(O)c(O)c(C=O)c2c1O [AT-101] (top concentration 100000 nM) | 5.08 | 4.08 | 4.98 | 4.18 | 4.68 | 0.58 | 6.48 | 14.6 | 4.18 | -0.92 | 3.28 | 5.88 | 1.98 | 0.98 | 2.78 | 0.98 | 5.28 | 1.88 | 0.98 | 0.18
17 | CN1CCN(c2nc(C3=C(c4c[nH]c5ccccc45)C(=O)NC3=O)c3ccccc3n2)CC1 [Sotrastaurin] (top concentration 10000 nM) | 2.7 | 2 | 5.7 | 5.2 | 0.3 | 2.3 | 0.5 | 6.4 | 9.9 | 5.8 | -2.3 | 4.4 | -1.7 | 1.8 | -1.3 | 3.4 | 4.8 | 0 | -2.3 | 2.9
18 | CC[C@H](Nc1ncnc2[nH]cnc12)c1nc2cccc(F)c2c(=O)n1-c1ccccc1 [Idelalisib] (top concentration 10000 nM) | 0.04 | 0.04 | 3.14 | 5.34 | -1.16 | 16.1 | 7.54 | 5.64 | 11.3 | 9.44 | -2.16 | 1.24 | -1.36 | -2.16 | -1.26 | 23.8 | 2.74 | -0.76 | -2.16 | 8.84

Source: the supplement of paper PMC8967900
